# Results reported in patent US11850273B2, “Chemical reprogramming of human glial cells into neurons for brain and spinal cord repair” (The Penn State Research Foundation, priority 2014, dated 2023).
# pIC50: −log10 of the molar value. Entries after “also recorded” stand apart in the source; their conditions may differ.
# Legend:
# [1] = cited from earlier work
# human astrocytes = assay: Withdrawal of each individual compound from the 9 small molecule pool; format: cell-based; conditions: 14 days post initial treatment; for effect of removal from the 9 small molecule pool on number of converted neurons / reprogramming efficiency: SAG and Purmo removed together
# Description: This Example describes analysis of functional roles of each individual compound during chemical reprogramming. To dissect out the contribution of each single molecule toward reprogramming, we performed a series of experiments by withdrawing each individual compound from our cocktail pool (FIG. 6). […] FIG. 6K illustrates the summarized data of drug withdrawing experiments. While it is not a surprise that Tzv had no effect since it mainly acts as a cell survival factor, it was unexpected to find that removing TTNPB had no effect. […] On the other hand, the inhibition of Notch signaling, GSK-3β, and BMP/TGFβ signaling pathways appeared to be important for reprogramming astrocytes into neurons. […] Reprogramming human astrocytes into neurons. The astrocytes were cultured on poly-D-lysine (Sigma) coated coverslips (12 mm) at a density of 50,000 cells per coverslip in 24-well plates (BD Biosciences). The cells were cultured in human astrocyte medium until 90% confluence. At day 0 before reprogramming, half of the culture medium was replaced by N2 medium consisting of DMEM/F12 (Gibco), penicillin/streptomycin (Gibco) and N2 supplements (Gibco). The following day (Day 1), the culture medium was completely replaced by N2 medium supplemented with small molecules, or with 1% DMSO in control group. […] To promote synaptic maturation of converted neurons, brain-derived neurotrophic factor (BDNF, 20 ng/Ml, Invitrogen), Insulin-like growth factor 1 (IGF-1, 10 ng/ml, Invitrogen) and neurotrophin 3 (NT-3, 10 ng/ml, Invitrogen) were added in neuronal differentiation medium at day 9 and were refreshed every four days until day 30 (Song et al., 2002).
# [2] = tested on: Aβ42 in human neuroblastoma cells; conditions: cited from earlier work
# gamma secretase = conditions: read-out: IC50 γ-secretase; cited from earlier work
# [3] = tested on: Aβ40 in human neuroblastoma cells; conditions: cited from earlier work
# [4] = tested on: Notch cleavage and Notch-mediated intracellular signaling; conditions: cited from earlier work
# [5] = tested on: BACE1, BACE2, α-secretase, the proteasome or GSK3β; conditions: cited from earlier work
# Notch = conditions: cited from earlier work
# [6] = tested on: Aβ40 and Aβ42 in SH-SY5Y neuroblastoma cells; conditions: cited from earlier work
# GSK-3β = GSK-3β (Homo sapiens, UniProt P49841); conditions: cited from earlier work
# [7] = tested on: mouse embryonic stem cells; conditions: At 400 Nm; cited from earlier work
# [8] = tested on: human cortical astrocytes (HA1800, ScienCell); format: cell-based; conditions: VPA in reprogramming medium longer than 2 days
# [9] = tested on: human astrocyte-converted neurons; assay: Patch clamp whole-cell recordings of human astrocyte-converted neurons
# TGFβR-I = TGFβR-I (Homo sapiens, UniProt P36897); conditions: cited from earlier work
# TGFβR-I, sequence (P36897 34-503): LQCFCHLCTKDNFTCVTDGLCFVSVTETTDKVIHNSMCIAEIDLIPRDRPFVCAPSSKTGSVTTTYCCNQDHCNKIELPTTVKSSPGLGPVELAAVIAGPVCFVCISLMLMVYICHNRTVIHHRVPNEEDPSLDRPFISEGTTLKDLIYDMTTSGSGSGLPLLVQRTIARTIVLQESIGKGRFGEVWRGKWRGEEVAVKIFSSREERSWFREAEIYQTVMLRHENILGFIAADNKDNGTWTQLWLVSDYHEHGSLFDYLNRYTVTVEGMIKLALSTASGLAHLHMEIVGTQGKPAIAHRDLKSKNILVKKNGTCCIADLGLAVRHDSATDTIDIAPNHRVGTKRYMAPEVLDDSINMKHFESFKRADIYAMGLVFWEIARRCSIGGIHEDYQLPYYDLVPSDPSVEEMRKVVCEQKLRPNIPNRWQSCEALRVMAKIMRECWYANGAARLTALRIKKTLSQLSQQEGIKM
# GSK-3β, sequence (P49841 whole entry, species assumed): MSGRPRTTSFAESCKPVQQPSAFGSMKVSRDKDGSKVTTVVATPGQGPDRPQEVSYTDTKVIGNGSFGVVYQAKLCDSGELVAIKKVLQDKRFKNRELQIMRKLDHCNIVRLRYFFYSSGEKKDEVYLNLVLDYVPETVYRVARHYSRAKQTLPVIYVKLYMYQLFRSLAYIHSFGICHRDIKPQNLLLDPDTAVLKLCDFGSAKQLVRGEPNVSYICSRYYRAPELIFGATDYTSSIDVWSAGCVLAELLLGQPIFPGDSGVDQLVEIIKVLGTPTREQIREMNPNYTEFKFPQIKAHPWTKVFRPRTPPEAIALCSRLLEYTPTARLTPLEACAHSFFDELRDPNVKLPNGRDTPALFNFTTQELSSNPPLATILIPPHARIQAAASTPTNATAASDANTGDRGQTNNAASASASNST
compound,measurement,setting,value
N#Cc1ccc2[nH]c(O)c(-c3ccc(CN4CCOCC4)cn3)c2c1 [AZD1080],oral activity and brain permeability,[1],"selective, orally active, brain permeable GSK3 inhibitor"
C[C@H](NC(=O)Cc1cc(F)cc(F)c1)C(=O)N[C@H](C(=O)OC(C)(C)C)c1ccccc1 [DAPT],effect of individual removal from the 9 small molecule pool on number of converted neurons / reprogramming efficiency,human astrocytes,significantly reduced; also recorded: most significant reduction
"CC(C)C[C@H](NC(=O)[C@H](Cc1ccccc1)C[C@@H](O)[C@H](Cc1ccccc1)NC(=O)OC(C)(C)C)C(=O)N[C@@H](Cc1ccccc1)C(N)=O [L-685, 458]",pIC50,[2],7.17
same,pIC50,gamma secretase,7.77
same,pIC50,[3],7.32
COc1oc(=O)c2cc(N)ccc2c1Cl [LK 6],effect on Notch cleavage and Notch-mediated intracellular signaling,[4],no effect
same,"activity on BACE1, BACE2, α-secretase, the proteasome or GSK3β",[5],"signaling. Displays no activity on BACE1, BACE2,"
C[C@H](NC(=O)CCC(F)(F)F)C(=O)N[C@@H]1C(=O)N(CCO)c2ncccc2-c2ccccc21 [LY3039478],pIC50,Notch,9.39
O=S(=O)(NC1CCC(c2cc(F)ccc2F)(S(=O)(=O)c2ccc(Cl)cc2)CC1)C(F)(F)F (stereo not shown) [MRK 560],oral bioavailability,[1],Orally bioavailable.
same,pIC50,[6],9.19
"c1ccc2c(Oc3nc(Nc4ccc(N5CCOCC5)cc4)c4ncn(C5CCCCC5)c4n3)cccc2c1 [Purmo, purmorphamine]",effect of removal from the 9 small molecule pool on number of converted neurons / reprogramming efficiency,human astrocytes,slightly reduced
CC(C)(C(=O)NCC(F)(F)C(F)(F)F)C(=O)N[C@@H]1C(=O)Nc2ccccc2-c2ccccc21 [RO4929097],pIC50,gamma secretase,8.40
CNC1CCC(N(Cc2cccc(-c3ccncc3)c2)C(=O)c2sc3ccccc3c2Cl)CC1 (stereo not shown) [SAG],effect of removal from the 9 small molecule pool on number of converted neurons / reprogramming efficiency,human astrocytes,slightly reduced
"NC(=O)c1ccc(-c2nc(-c3ccc4c(c3)OCO4)c(-c3ccccn3)[nH]2)cc1 [SB431542, -[4-(1,3-benzodioxol-5-yl)-5-(2-pyridinyl)-1H-imidazol-2-yl]benzamide]",effect of individual removal from the 9 small molecule pool on number of converted neurons / reprogramming efficiency,human astrocytes,significantly reduced
C/C(=C\c1ccc(C(=O)O)cc1)c1ccc2c(c1)C(C)(C)CCC2(C)C [TTNPB],effect of individual removal from the 9 small molecule pool on number of converted neurons / reprogramming efficiency,human astrocytes,did not affect; also recorded: did not have a significant effect
Nc1cccc(-c2cc3c(Oc4cccc(O)c4)ncnc3[nH]2)c1 [TWS119],pIC50,GSK-3β,7.52
same,neurogenesis in mouse embryonic stem cells,[7],TWS119 induces neurogenesis in mouse embryonic
"O=C(NCc1ccccc1)c1csc(Nc2ccncn2)n1 [Tzv, thiazovivin]",effect of individual removal from the 9 small molecule pool on number of converted neurons / reprogramming efficiency,human astrocytes,did not affect; also recorded: did not have a significant effect
"CCCC(CCC)C(=O)O [VPA, valproic acid]",effect of individual removal from the 9 small molecule pool on number of converted neurons / reprogramming efficiency,human astrocytes,slightly reduced
same,cell death,[8],increased cell death
DNQX,effect on the majority of synaptic events at −70 mV,[9],blocked
LY364947,selectivity over TGFβR-II,TGFβR-I,shows 7-fold selectivity over TGFβR-II.
